Reference: patent publication US10125453B2, “Antimicrobial textile products and method of obtaining thereof” (YEDITEPE ÜNIVERSITESI, priority 2013, dated 2018)

Tests used:
Format in all cases: cell-based
Set-up in all cases: key: +: inhibition zones against the tested microorganisms were observed; −: inhibition zones were not detected
[1] = system: Candida spp.; experiment: standard NCCLS disc diffusion method, Candida spp.; details: 100 u/disc, SDA, 36±1° C., 48 hours
Description: (§1) Antimicrobial properties of the textile products loaded with impregnation solution were examined by using standard NCCLS disc diffusion method (Lalitha, 2005). Briefly, the 100 μl solution including 10^8 cfu/ml bacteria, 10^6 cfu/ml yeast, and 10^4 spor/ml fungus was prepared with new cultures and inoculated with spreading method on Trypticase soy agar (TSA), Sabouraud Dextrose Agar (SDA), and Potato Dextrose Agar (PDA), respectively. The sections of approximately 1×1 cm, which were cut out from the textile products loaded with the impregnation solution comprising the stated concentrations of triclosan, chlorhexidine and disodium octaborate pentahydrate, were placed on inoculated petri dishes. Empty textile products which were not loaded with impregnation solution were used as negative control. As positive control, Ofloxacin (5 μg/disc) was used for bacteria and Nystatin (100 u/disc) was used for yeasts and fungi. The petri dishes, which were inoculated and on which textile products were placed, were kept at 36±1° C. for bacteria for 24 hours and 48 hours for yeasts and at 25±1° C. for fungi for 72 hours. Antimicrobial activity against microorganisms tested in standard disc diffusion method was assessed by measuring the inhibition zone. All tests were repeated at least twice.

[2] = system: Penicillium spp.; experiment: standard NCCLS disc diffusion method, Penicillium spp.; details: 100 u/disc, PDA, 25±1° C., 72 hours
Description: as §1

[3] = system: Aspergillus spp.; experiment: standard NCCLS disc diffusion method, Aspergillus spp.; details: 100 u/disc, PDA, 25±1° C., 72 hours
Description: as §1

[4] = system: MRSA; experiment: standard NCCLS disc diffusion method, MRSA; details: TSA, 36±1° C., 24 hours
Description: as §1, with “As positive control, Ofloxacin (5 μg/disc) was used for bacteria and Nystatin (100 u/disc) was used for yeasts and fungi.” left out

[5] = system: Pseudomonas aeruginosa; experiment: standard NCCLS disc diffusion method, Pseudomonas aeruginosa; details: TSA, 36±1° C., 24 hours
Description: as §1, with “As positive control, Ofloxacin (5 μg/disc) was used for bacteria and Nystatin (100 u/disc) was used for yeasts and fungi.” left out

[6] = system: Escherichia coli; experiment: standard NCCLS disc diffusion method, Escherichia coli; details: TSA, 36±1° C., 24 hours
Description: as §1, with “As positive control, Ofloxacin (5 μg/disc) was used for bacteria and Nystatin (100 u/disc) was used for yeasts and fungi.” left out

[7] = system: Staphylococcus aureus; experiment: standard NCCLS disc diffusion method, Staphylococcus aureus; details: 10 μg/disc, TSA, 36±1° C., 24 hours
Description: as §1, with “As positive control, Ofloxacin (5 μg/disc) was used for bacteria and Nystatin (100 u/disc) was used for yeasts and fungi.” left out

Measured: In vitro antimicrobial test result (inhibition zone), positive control

C[C@@H]1[C@H](O)[C@@H](C)/C=C/C=C/CC/C=C/C=C/C=C/C=C/C(O[C@H]2O[C@H](C)[C@@H](O)[C@H](N)[C@@H]2O)CC2O[C@](O)(CC(O)C(O)CCC(O)CC(O)CC(O)CC(=O)O[C@H]1C)CC(O)C2C(=O)O (stereo partly shown) [Nystatin]
+: [1] | [2] | [3]

CC1COc2c(N3CCN(C)CC3)c(F)cc3c(=O)c(C(=O)O)cn1c23 (stereo not shown) [Ofloxacin]
+: [4] | [5] | [6] | [7]
